Test results reported in BindingDB's records for doi:10.1021/acs.jmedchem.7b01709 (Kobe Gakuin University, 2018).

Experiment: Inhibition of DRV-resistant protease V32I/L33F/I54M/V82I mutant in HIV1 transfected in 293T cells after 48 hrs by lentiviral vector-based luciferase reporter gene assay

| SMILES | EC50 [nM] |
| --- | --- |
| COc1cccc2cc(C(=O)N[C@H](C(=O)N[C@@H](Cc3ccccc3)[C@H](O)C(=O)N3CSC(C)(C)[C@H]3C(=O)NCc3c(C)cccc3C)[C@H]3CCOC3)oc12 | 0.3 |

Experiment: Inhibition of DRV-resistant protease V32I/L33F/I54M/I84V mutant in HIV1 transfected in 293T cells after 48 hrs by lentiviral vector-based luciferase reporter gene assay

| SMILES | EC50 [nM] |
| --- | --- |
| COc1cccc2cc(C(=O)N[C@H](C(=O)N[C@@H](Cc3ccccc3)[C@H](O)C(=O)N3CSC(C)(C)[C@H]3C(=O)NCc3c(C)cccc3C)[C@H]3CCOC3)oc12 | 1.2 |

Experiment: Inhibition of protease L10F/V32I/M46I/I47V/Q58E/I84V mutant in HIV1 A17 infected in human MT4 cells assessed as reduction in virus-induced cytopathic effect after 5 days by MTT assay

| SMILES | EC50 [nM] |
| --- | --- |
| COc1cccc2cc(C(=O)N[C@H](C(=O)N[C@@H](Cc3ccccc3)[C@H](O)C(=O)N3CSC(C)(C)[C@H]3C(=O)NCc3c(C)cccc3C)C(C)C)oc12 | 309 |
| Cc1cccc(C)c1CNC(=O)[C@H]1N(C(=O)[C@@H](O)[C@H](Cc2ccccc2)NC(=O)[C@H](CC(N)=O)NC(=O)c2cc3ccccc3o2)CSC1(C)C | 61 |
| COc1cccc2cc(C(=O)N[C@@H](CC(N)=O)C(=O)N[C@@H](Cc3ccccc3)[C@H](O)C(=O)N3CSC(C)(C)[C@H]3C(=O)NCc3c(C)cccc3C)oc12 | 84 |
| Cc1cccc(C)c1CNC(=O)[C@H]1N(C(=O)[C@@H](O)[C@H](Cc2ccccc2)NC(=O)[C@@H](NC(=O)COc2cccc(N(C)C)c2)[C@H]2CCOC2)CSC1(C)C | 165 |
| Cc1cccc(C)c1CNC(=O)[C@H]1N(C(=O)[C@@H](O)[C@H](Cc2ccccc2)NC(=O)[C@@H](NC(=O)c2cc3ccccc3o2)[C@H]2CCOC2)CSC1(C)C | 678 |
| Cc1cccc(C)c1CNC(=O)[C@H]1N(C(=O)[C@@H](O)[C@H](Cc2ccccc2)NC(=O)[C@@H](NC(=O)c2cc3ccccc3o2)C(C)C)CSC1(C)C | 1100 |
| COc1cccc2cc(C(=O)N[C@H](C(=O)N[C@@H](Cc3ccccc3)[C@H](O)C(=O)N3CSC(C)(C)[C@H]3C(=O)NCc3c(C)cccc3C)[C@H]3CCOC3)oc12 | 25 |
| Cc1ccccc1CNC(=O)[C@H]1N(C(=O)[C@@H](O)[C@H](Cc2ccccc2)NC(=O)[C@@H](NC(=O)c2cnc3ccccc3n2)[C@H]2CCOC2)CSC1(C)C | 95 |
| Cc1ccccc1CNC(=O)[C@H]1N(C(=O)[C@@H](O)[C@H](Cc2ccccc2)NC(=O)c2cccc(O)c2C)CSC1(C)C [AG1776] | 2730 |
| Cc1cccc(C)c1CNC(=O)[C@H]1N(C(=O)[C@@H](O)[C@H](Cc2ccccc2)NC(=O)[C@@H](NC(=O)COc2cccc(Nc3ccccc3)c2)[C@H]2CCOC2)CSC1(C)C | 226 |
